Data reported in ChEMBL document CHEMBL4507327 (2021).

Tests used:
[1] = species: Rattus norvegicus; test: Inhibition of Glutamate, NMDA, Phencyclidine at 10 µM in the Eurofins-Panlabs radioligand binding assay (Eurofins_assay_233000); format: protein-complex assay; conditions: Compound concentration 10.0 uM
[2] = target: Neuropeptide Y receptor type 2 (Homo sapiens) (UniProt P49146); test: Inhibition of Neuropeptide Y Y2 at 10 µM in the Eurofins-Panlabs radioligand binding assay (Eurofins_assay_257110); conditions: Compound concentration 10.0 uM
[3] = target: T1, 5-hydroxytryptamine receptor 3A (Homo sapiens) (UniProt P46098); test: Inhibition of Serotonin (5-Hydroxytryptamine) 5-HT3 at 10 µM in the Eurofins-Panlabs radioligand binding assay (Eurofins_assay_271910); parameters: ligand concentration 0.69 nM; conditions: Compound concentration 10.0 uM
T1 sequence (whole entry): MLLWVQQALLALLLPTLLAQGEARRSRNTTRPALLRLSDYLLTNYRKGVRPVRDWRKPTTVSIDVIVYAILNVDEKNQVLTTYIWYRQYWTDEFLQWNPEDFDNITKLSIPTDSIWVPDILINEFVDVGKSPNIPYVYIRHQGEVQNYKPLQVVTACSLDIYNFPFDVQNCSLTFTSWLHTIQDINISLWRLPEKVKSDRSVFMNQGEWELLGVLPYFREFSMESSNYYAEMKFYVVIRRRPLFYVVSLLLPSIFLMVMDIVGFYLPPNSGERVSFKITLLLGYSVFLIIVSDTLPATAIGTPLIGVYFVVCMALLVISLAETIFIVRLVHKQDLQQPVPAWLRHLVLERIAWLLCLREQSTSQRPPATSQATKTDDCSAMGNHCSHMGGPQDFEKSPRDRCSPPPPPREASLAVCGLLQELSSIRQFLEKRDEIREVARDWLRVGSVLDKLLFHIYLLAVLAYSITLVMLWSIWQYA

[4] = target: Alpha-1B adrenergic receptor (Homo sapiens) (UniProt P35368); test: Adrenergic alpha1B Eurofins-Panlabs radioligand binding assay; parameters: ligand concentration 0.2 nM; conditions: Compound concentration 10.0 uM
[5] = target: Tyrosine-protein kinase ABL2 (Homo sapiens, UniProt P42684); test: Arg(ABL2LGF1) Takeda global kinase panel
[6] = target: Tyrosine-protein kinase receptor UFO (Homo sapiens, UniProt P30530); test: Axl(AXL1LGY1) Takeda global kinase panel
[7] = target: Calcium/calmodulin-dependent protein kinase type 1G (Homo sapiens, UniProt Q96NX5); test: CaMK1gamma(CA1GLGN1) Takeda global kinase panel
[8] = target: Cyclin-dependent kinase 14 (Homo sapiens, UniProt O94921); test: PFTAIRE1(CD14CGS1) Takeda global kinase panel
[9] = target: Cyclin-dependent kinase 9 (Homo sapiens, UniProt P50750); test: CDK9(CDK9CGS1) Takeda global kinase panel
[10] = target: Dual specificity protein kinase CLK1 (Homo sapiens, UniProt P49759); test: CLK1(CLK1LGF1) Takeda global kinase panel
[11] = target: Dual specificity protein kinase CLK3 (Homo sapiens, UniProt P49761); test: CLK3(CLK3LGY1) Takeda global kinase panel
[12] = target: eIF-2-alpha kinase GCN2 (Homo sapiens, UniProt Q9P2K8); test: GCN2(EIK4PHK1) Takeda global kinase panel
[13] = target: Ephrin type-B receptor 1 (Homo sapiens, UniProt P54762); test: EphB1(EPB1LGY1) Takeda global kinase panel
[14] = target: Serine/threonine-protein kinase/endoribonuclease IRE1 (Homo sapiens, UniProt O75460); test: IRE1(ERN1PHY1) Takeda global kinase panel
[15] = target: Insulin receptor-related protein (Homo sapiens, UniProt P14616); test: IRR(INSSLGF1) Takeda global kinase panel
[16] = target: Vascular endothelial growth factor receptor 2 (Homo sapiens, UniProt P35968); test: KDR(KDR1CGY1) Takeda global kinase panel
[17] = target: Mast/stem cell growth factor receptor Kit (Homo sapiens, UniProt P10721); test: Kit(KIT1MGC1) Takeda global kinase panel
[18] = target: Dual specificity mitogen-activated protein kinase kinase 1 (Homo sapiens, UniProt Q02750); test: MEK1 [MAP2K1(M2K1LGF1)] Takeda global kinase panel
[19] = target: Mitogen-activated protein kinase kinase kinase 13 (Homo sapiens, UniProt O43283); test: LZK(M313LGRJ) Takeda global kinase panel
[20] = target: Muscle, skeletal receptor tyrosine-protein kinase (Homo sapiens, UniProt O15146); test: MUSK(MUSKLGY1) Takeda global kinase panel
[21] = target: Myosin light chain kinase 2, skeletal/cardiac muscle (Homo sapiens, UniProt Q9H1R3); test: skMLCK(MYL2LHY1) Takeda global kinase panel
[22] = target: Phosphorylase b kinase gamma catalytic chain, skeletal muscle/heart isoform (Homo sapiens, UniProt Q16816); test: PhKgamma1(PHG1LHY1) Takeda global kinase panel
[23] = target: Serine/threonine-protein kinase pim-1 (Homo sapiens, UniProt P11309); test: Pim1(PIM1LGP1) Takeda global kinase panel
[24] = target: Serine/threonine-protein kinase PLK3 (Homo sapiens, UniProt Q9H4B4); test: PLK3(PLK3PHY1) Takeda global kinase panel
[25] = target: Serine/threonine-protein kinase Sgk3 (Homo sapiens, UniProt Q96BR1); test: SGK3(SGK3LGY1) Takeda global kinase panel
[26] = target: Serine/threonine-protein kinase 4 (Homo sapiens, UniProt Q13043); test: MST1(STK4LGF1) Takeda global kinase panel
[27] = target: TGF-beta receptor type-2 (Homo sapiens, UniProt P37173); test: TGFbetaR2(TGF2LGY1) Takeda global kinase panel
[28] = target: Serine/threonine-protein kinase tousled-like 1 (Homo sapiens, UniProt Q9UKI8); test: TLK1(TLK1LGP1) Takeda global kinase panel
[29] = target: Glutamate NMDA receptor (Rattus norvegicus) (UniProt P35439+Q00959+Q00960+Q00961+Q62645+Q8VHN2+Q9R1M7); conditions: Compound concentration 10.0 uM
[30] = target: T2, Muscarinic acetylcholine receptor M2 (Homo sapiens) (UniProt P08172); conditions: Compound concentration 10.0 uM
T2 sequence (whole entry): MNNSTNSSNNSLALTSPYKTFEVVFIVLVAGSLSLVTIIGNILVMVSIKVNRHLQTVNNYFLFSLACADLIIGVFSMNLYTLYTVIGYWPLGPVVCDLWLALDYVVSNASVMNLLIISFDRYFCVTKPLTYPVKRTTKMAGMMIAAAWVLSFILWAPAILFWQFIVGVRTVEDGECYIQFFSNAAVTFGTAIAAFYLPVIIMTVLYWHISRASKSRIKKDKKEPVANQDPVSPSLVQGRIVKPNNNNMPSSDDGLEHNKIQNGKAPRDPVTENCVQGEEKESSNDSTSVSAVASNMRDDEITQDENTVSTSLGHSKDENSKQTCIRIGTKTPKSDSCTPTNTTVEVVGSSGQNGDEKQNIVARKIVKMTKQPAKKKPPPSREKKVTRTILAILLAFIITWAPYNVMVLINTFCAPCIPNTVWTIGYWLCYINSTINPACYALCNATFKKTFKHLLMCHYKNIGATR

[31] = target: Glutamate receptor ionotropic, kainate (Rattus norvegicus) (UniProt P22756+Q01812+P42260+P42264+Q63273); conditions: Compound concentration 10.0 uM

Calcium/calmodulin-dependent protein kinase type 1G, sequence (Q96NX5 whole entry): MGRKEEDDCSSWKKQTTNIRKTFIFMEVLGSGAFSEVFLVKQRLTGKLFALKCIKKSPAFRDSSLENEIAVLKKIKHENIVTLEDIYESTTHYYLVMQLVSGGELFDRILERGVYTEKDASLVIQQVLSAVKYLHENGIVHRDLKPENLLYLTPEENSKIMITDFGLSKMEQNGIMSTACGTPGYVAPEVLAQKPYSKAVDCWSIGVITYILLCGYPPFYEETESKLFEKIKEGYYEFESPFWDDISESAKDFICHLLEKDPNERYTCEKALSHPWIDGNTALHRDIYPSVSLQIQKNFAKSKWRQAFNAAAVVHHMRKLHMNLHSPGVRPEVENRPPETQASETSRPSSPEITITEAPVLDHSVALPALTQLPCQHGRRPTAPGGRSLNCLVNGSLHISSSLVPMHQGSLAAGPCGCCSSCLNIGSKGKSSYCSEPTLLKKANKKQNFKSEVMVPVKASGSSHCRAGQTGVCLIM
Phosphorylase b kinase gamma catalytic chain, skeletal muscle/heart isoform, sequence (Q16816 whole entry, canonical isoform): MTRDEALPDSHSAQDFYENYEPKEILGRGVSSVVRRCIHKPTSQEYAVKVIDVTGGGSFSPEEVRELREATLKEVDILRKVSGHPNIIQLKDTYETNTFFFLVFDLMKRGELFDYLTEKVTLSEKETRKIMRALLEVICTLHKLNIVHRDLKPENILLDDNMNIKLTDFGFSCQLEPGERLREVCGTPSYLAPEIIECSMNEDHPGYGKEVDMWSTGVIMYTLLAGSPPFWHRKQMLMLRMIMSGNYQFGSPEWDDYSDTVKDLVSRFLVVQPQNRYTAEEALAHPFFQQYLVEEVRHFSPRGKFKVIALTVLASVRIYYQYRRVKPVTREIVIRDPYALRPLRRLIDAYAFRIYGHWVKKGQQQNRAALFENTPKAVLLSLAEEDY
Serine/threonine-protein kinase 4, sequence (Q13043 whole entry): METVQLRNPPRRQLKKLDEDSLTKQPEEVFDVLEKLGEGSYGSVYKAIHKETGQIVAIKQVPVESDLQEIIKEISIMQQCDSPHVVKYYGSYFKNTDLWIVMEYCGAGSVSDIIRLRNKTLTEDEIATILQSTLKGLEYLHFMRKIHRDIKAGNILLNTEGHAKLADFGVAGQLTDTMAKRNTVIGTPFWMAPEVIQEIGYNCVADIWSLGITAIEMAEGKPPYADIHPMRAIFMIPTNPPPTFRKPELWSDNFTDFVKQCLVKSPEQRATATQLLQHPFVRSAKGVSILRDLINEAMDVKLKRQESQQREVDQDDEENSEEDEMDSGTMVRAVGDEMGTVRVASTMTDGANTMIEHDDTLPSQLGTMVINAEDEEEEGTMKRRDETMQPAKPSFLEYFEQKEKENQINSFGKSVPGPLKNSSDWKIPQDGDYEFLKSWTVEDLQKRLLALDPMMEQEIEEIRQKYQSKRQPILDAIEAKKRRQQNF
Serine/threonine-protein kinase/endoribonuclease IRE1, sequence (O75460 whole entry): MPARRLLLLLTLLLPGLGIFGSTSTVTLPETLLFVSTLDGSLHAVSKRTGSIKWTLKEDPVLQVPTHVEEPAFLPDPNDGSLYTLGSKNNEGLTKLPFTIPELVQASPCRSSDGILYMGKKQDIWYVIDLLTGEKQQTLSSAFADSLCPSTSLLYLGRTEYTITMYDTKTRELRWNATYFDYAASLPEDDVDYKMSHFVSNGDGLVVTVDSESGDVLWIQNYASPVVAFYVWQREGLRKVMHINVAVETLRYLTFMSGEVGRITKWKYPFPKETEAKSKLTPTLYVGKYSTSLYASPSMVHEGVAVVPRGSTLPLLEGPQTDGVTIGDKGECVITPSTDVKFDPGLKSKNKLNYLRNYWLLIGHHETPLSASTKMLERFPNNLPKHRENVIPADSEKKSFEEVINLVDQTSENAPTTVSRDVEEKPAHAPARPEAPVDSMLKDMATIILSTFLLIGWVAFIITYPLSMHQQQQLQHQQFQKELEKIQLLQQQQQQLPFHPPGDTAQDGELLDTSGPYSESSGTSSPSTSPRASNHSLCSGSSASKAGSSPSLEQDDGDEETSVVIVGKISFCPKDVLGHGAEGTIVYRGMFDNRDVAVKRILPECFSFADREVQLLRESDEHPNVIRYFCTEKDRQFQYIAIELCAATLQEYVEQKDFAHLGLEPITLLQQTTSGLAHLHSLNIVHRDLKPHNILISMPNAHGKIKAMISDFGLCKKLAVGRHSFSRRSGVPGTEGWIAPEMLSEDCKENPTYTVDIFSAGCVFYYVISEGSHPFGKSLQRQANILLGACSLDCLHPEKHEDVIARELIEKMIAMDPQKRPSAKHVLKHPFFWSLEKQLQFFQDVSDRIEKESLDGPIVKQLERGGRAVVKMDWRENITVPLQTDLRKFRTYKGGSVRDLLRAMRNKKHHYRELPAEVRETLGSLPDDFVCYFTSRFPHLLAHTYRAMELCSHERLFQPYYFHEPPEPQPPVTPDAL
Mast/stem cell growth factor receptor Kit, sequence (P10721 whole entry): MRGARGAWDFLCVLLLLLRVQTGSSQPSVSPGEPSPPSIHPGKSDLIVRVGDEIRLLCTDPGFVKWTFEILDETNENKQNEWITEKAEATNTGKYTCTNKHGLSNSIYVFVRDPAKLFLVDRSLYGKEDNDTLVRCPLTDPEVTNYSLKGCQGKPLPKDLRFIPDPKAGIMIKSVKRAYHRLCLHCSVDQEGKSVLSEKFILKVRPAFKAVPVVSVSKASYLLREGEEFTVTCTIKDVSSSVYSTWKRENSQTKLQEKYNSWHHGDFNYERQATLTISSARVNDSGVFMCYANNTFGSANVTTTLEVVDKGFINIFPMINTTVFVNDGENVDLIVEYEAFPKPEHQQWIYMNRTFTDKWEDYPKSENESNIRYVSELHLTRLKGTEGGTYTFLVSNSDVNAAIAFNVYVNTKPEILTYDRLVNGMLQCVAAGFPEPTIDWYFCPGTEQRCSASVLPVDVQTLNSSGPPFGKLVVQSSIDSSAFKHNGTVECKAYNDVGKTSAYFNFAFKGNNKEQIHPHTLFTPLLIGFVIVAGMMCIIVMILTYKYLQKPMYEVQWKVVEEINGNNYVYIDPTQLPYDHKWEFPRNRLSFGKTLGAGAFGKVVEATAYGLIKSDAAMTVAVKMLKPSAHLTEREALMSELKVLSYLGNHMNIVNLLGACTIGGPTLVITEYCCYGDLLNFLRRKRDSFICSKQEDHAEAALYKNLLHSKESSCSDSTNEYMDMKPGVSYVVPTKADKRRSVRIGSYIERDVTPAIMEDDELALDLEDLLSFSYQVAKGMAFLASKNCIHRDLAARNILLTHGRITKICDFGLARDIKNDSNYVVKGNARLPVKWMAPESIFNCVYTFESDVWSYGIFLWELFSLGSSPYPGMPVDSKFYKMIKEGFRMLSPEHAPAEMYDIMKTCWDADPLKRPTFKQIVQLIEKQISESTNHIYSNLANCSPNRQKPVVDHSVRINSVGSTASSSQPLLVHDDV
Serine/threonine-protein kinase Sgk3, sequence (Q96BR1 whole entry): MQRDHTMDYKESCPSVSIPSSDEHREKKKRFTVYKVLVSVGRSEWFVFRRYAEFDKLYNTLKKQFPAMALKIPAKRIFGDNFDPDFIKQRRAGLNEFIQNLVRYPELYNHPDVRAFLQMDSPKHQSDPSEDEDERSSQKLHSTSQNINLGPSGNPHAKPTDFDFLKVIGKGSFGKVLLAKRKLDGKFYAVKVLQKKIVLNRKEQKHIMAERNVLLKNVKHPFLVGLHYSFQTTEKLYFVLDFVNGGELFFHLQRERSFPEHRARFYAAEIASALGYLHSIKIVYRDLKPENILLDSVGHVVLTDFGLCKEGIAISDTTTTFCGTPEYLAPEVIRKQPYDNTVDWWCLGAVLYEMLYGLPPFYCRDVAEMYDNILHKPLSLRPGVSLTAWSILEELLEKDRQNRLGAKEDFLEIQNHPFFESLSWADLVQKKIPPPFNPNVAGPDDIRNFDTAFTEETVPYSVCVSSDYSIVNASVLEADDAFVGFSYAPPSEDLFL
Tyrosine-protein kinase receptor UFO, sequence (P30530 whole entry): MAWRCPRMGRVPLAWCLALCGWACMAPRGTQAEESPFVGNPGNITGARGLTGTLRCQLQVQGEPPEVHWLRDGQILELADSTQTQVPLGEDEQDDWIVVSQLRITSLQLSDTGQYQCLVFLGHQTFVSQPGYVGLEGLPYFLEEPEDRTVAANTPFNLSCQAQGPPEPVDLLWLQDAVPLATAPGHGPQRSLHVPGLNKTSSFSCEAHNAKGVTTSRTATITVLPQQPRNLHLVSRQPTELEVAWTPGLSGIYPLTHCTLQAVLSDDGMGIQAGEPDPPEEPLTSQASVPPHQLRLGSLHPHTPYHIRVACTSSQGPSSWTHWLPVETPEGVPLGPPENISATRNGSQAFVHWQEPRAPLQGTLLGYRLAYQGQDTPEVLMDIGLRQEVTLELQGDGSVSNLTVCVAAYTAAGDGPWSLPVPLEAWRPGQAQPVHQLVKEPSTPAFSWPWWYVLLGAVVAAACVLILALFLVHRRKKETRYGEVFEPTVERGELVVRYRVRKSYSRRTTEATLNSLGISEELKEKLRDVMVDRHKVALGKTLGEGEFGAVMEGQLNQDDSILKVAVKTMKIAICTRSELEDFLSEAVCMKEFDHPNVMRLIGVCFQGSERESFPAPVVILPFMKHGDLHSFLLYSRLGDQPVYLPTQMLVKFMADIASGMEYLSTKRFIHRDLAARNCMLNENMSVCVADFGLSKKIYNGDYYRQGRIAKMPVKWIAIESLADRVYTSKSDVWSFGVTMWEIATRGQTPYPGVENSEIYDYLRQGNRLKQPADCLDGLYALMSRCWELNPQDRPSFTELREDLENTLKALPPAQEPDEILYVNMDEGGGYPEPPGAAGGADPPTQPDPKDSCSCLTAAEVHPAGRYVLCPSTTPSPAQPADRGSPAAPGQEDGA
Serine/threonine-protein kinase pim-1, sequence (P11309 whole entry): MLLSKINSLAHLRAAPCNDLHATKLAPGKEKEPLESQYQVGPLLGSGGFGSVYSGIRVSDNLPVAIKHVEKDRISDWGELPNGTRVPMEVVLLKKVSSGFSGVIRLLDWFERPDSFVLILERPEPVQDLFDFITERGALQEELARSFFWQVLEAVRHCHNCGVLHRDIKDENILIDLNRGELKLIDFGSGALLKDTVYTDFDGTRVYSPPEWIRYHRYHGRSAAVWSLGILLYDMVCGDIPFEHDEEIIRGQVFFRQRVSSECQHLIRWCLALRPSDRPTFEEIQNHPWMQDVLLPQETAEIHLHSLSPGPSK

Structure (SMILES)	inhibition [1] [%]	inhibition [2] [%]	inhibition [3] [%]	inhibition [4] [%]	IC50 [5] [µM]	IC50 [6] [µM]	IC50 [7] [µM]	IC50 [8] [µM]	IC50 [9] [µM]	IC50 [10] [µM]	IC50 [11] [µM]	IC50 [12] [µM]	IC50 [13] [µM]	IC50 [14] [µM]	IC50 [15] [µM]	IC50 [16] [µM]	IC50 [17] [µM]	IC50 [18] [µM]	IC50 [19] [µM]	IC50 [20] [µM]	other results
CN1C(=O)[C@@H](N2CCc3cn(Cc4ccccc4)nc3C2=O)COc2ccccc21 [TP-030-1]	-8	2	6	2	1	1	1	1	1	1	1	1	1	1	1	1	1	1	1	1	IC50 [21]: 1 µM; IC50 [22]: 1 µM; IC50 [23]: 1 µM; IC50 [24]: 1 µM; IC50 [25]: 1 µM; IC50 [26]: 1 µM; IC50 [27]: 1 µM; IC50 [28]: 1 µM; inhibition [29]: 0%; inhibition [30]: -4%; inhibition [31]: -2%
CN1C(=O)[C@@H](N2CCc3cn(CC4CCS(=O)(=O)CC4)nc3C2=O)COc2ccccc21 [TP-030n]	-9	1	16	1	1	1	1	1	1	1	1	1	1	1	1	1	1	1	1	1	IC50 [21]: 1 µM; IC50 [22]: 1 µM; IC50 [23]: 1 µM; IC50 [24]: 1 µM; IC50 [25]: 1 µM; IC50 [26]: 1 µM; IC50 [27]: 1 µM; IC50 [28]: 1 µM; inhibition [29]: -2%; inhibition [30]: 9%; inhibition [31]: 7%
